Kd data for 2 molecules are collected here from article PMC10974276, “Physiological Functions of the Cello-Oligosaccharides Binding CebE in the Pathogenic Streptomyces sp. AMCC400023” (Microorganisms, 2024).

Assay [1] deals with T1, CebE^5601.
T1 construct: N-terminal His tag (pET28a); E. coli BL21(C43); Ni-NTA; labelled with red fluorescent dye
In words: microscale thermophoresis. Type of assay: binding, Streptomyces sp. AMCC400023. The settings on record: 25 °C; protein 800 nM, dye-labelled; ligand series from 100 µM.

The target of assay [2] is T2, CebE^7671.
T2 construct: N-terminal His tag (pET28a); E. coli BL21(C43); Ni-NTA
As to the kind of experiment: microscale thermophoresis. Type of assay: binding, Streptomyces sp. AMCC400023. The settings on record: 25 °C; protein 800 nM, dye-labelled; ligand series from 270 mM.

Turning to `OC[C@H]1O[C@@H](O[C@H]2[C@H](O)[C@@H](O)C(O)O[C@@H]2CO)[C@H](O)[C@@H](O)[C@@H]1O` (stereo partly shown) [cellobiose], the Kd in assay [1] was found to be 0.977 µM; in assay [2], 1280 µM.
On the same counts, the results for `OC[C@H]1O[C@@H](O[C@H]2[C@H](O)[C@@H](O)[C@H](O[C@H]3[C@H](O)[C@@H](O)C(O)O[C@@H]3CO)O[C@@H]2CO)[C@H](O)[C@@H](O)[C@@H]1O` (stereo partly shown) [cellotriose] are 1.61 µM and 2720 µM.
